Experimental data taken from patent US12628829B2, “Compositions comprising recombianant Bacillus cells and an insecticide” (BASF CORPORATION, priority 2014, dated 2026).

Tested on: Maize
Experiment: Plant growth promotion, maize whole plant biomass after soil drench
Format: in vivo
Experimental: For instance, the formula and analysis can be applied to an evaluation of plant growth promotion. Such an assay is evaluated several days after the applications to plants. 100% means plant weight which corresponds to that of the untreated control plant. Efficacy means in this case the additional % of plant weight in comparison to that of the untreated control.
Experiments were conducted to analyze efficacy of a combination of flupyradifurone and a fermentation product of recombinant Bacillus thuringiensis cells expressing phospholipase C (“BEPC”). Maize seeds were grown in sterile mixture of synthetic media and sand in small three-inch square pots on light racks in a plant growth room at 25-28° C. and 50% humidity for about 14 days. Two seeds were planted in each pot. At planting, the growing media in each pot was drenched with the treatments described below. After 14 days, plants were measured for whole plant biomass. In the tables below, UTC refers to untreated control. “Calculated” refers to the expected effect calculated using the above-described Colby equation and “Efficacy” refers to the actual effect observed.
The SIVANTO® product, which contains flupyradifurone as its active ingredient (17.09% flupyradifurone), was diluted in 50 mL water and the diluted solution was used to drench the growing media. The application rate shown below refers to the amount of active ingredient (i.e., flupyradifurone) applied to the growing media.
A recombinant Bacillus cereus family member (Bacillus thuringiensis BT013A) expressing phospholipase C on its exosporium (BEPC) was generated as follows. […]
To obtain whole broth cultures of BEPC, 15 ml conicals containing brain heart infusion media (BHI) were inoculated with BEPC and grown for 7-8 hours at around 30° C. at a shaker setting of 300 rpm. […] After approximately 2 days of incubation, when sporulation was at least 95% completed, the culture broth was harvested and colony forming units calculated. […]

O=C1C=C(N(Cc2ccc(Cl)nc2)CC(F)F)CO1 [Flupyradifurone, flupyradifurone]
Efficacy % (actual effect observed: additional % of plant weight versus UTC, 14 days): 3%
Whole Plant Biomass (growing media drenched at planting, measured after 14 days, flupyradifurone 1.36 mg/pot, BEPC 7 × 10^8 CFU/pot): 3.50 g
Found % (plant weight relative to UTC = 100, drench at planting, 14 days): 103%
